Source: patent US6444670B2 (Wyeth, priority 1998, dated 2002)

Tests used:
[1] = test system: rat hepatic microsomal PTPases; conditions: 50 μM compound
[2] = biological target: T1, Human recombinant PTP1B (hPTP1B) (Homo sapiens, UniProt P18031); format: biochemical
T1 construct: made in house
T1 sequence (P18031 1-435): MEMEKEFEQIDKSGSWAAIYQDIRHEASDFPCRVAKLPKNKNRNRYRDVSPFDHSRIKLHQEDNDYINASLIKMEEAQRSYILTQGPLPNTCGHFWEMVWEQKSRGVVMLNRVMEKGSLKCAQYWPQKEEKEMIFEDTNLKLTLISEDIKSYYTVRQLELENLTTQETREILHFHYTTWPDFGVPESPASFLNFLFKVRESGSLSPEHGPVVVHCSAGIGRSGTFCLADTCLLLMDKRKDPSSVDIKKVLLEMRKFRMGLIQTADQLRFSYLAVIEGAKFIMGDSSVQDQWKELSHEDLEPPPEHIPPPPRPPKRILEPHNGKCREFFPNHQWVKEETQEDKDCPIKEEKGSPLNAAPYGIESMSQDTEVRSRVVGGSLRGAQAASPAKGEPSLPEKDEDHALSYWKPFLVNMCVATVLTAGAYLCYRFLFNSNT

diabetic (ob/ob) mice = assay: Blood glucose lowering in diabetic (ob/ob) mice; format: in vivo, mouse; conditions: dose 25 mg/Kg, (a) = no significant activity (p < 0.05) at this dose; for % Change Glucose from Vehicle: plasma glucose
Text: The procedures used and results obtained are briefly described below.
The non-insulin dependent diabetic (NIDDM) syndrome can be typically characterizes by obesity, hyperglycemia, abnormal insulin secretion, hyperinsulinemia and insulin resistance.
In each test procedure, mice [Male or female ob/ob (C57 B1/6J) and their lean litermates (ob/+ or +/+, Jackson Laboratories) ages 2 to 5 months (10 to 65 g)] of a similar age were randomized according to body weight into 4 groups of 10 mice. The mice were housed 5 per cage and are maintained on normal rodent chow with water ad libitum. Mice received test compound daily by gavage (suspended in 0.5 ml of 0.5% methyl cellulose); dissolved in the drinking water; or admixed in the diet. The dose of compounds given ranges from 2.5 to 200 mg/kg body weight/day. The dose is calculated based on the fed weekly body weight and is expressed as active moiety. […] Control mice received vehicle only.
On the morning of Day 4, 7 or 14 two drops of blood (approximetly 50 ul) were collected into sodium fluoride containing tubes either from the tail vein or after decapitation. For those studies in which the compound was administered daily by gavage the blood samples were collected 0 and 4 hours after compound administration. The plasma was isolated by centrifugation and the concentration of glucose is measured enzymatically on an Abbott V. P. Analyzer.
For each mouse, the percentage change in plasma glucose on Day 4, 7 or 14 is calculated relative to the mean plasma glucose of the vehicle treated mice. Analysis of variance followed by Dunett's Comparison Test (one-tailed) are used to estimate the significant difference between the plasma glucose values from the control group and the individual compound treated groups (CMS SAS Release 5.18).

Row | SMILES | melting point | % Change from Control [1] | IC50 [2] | % Change Glucose from Vehicle (diabetic (ob/ob) mice) | % Change Insulin from Vehicle (diabetic (ob/ob) mice)
1 | Cc1sc2c(Br)c3ccccc3c(-c3cc(Br)c(O)c(Br)c3)c2c1C [Example 9, 2,6-Dibromo-4-(9-bromo-2,3-dimethyl-naphtho[2,3-b]thiophen-4-yl)-phenol] | 172 to 174 °C | −49.80% | 539 nM | – | –
2 | Cc1sc2c(Br)c3ccccc3c(-c3cc(Br)c(O[C@H](Cc4ccccc4)C(=O)O)c(C4CCCC4)c3)c2c1C [Example 48] | 167 to 168.5 °C | −44.69% | 83 nM | −20.1 ^ % | –
3 | Cc1sc2c(Br)c3ccccc3c(-c3ccc(O)c([N+](=O)[O-])c3)c2c1C [Example 20, 4-(9-Bromo-2,3-dimethyl-naphtho[2,3-b]thiophen-4-yl)-2-nitro-phenol] | 183 to 185 °C | 2.13% | – | – | –
4 | CC(=O)Oc1ccc(-c2c3ccccc3c(Br)c3sc(C)c(C)c23)cc1 [Example 7, Acetic Acid 4-(9-bromo-2,3-dimethyl-naphtho[2,3-b]thiophen-4-yl)-phenyl ester] | 190 to 191 °C | – | – | – | –
5 | Cc1sc2c(Br)c3ccccc3c(-c3cc(Br)c(O)c(NC(=O)OC(C)(C)C)c3)c2c1C [Example 56, [3-Bromo-5-(9-bromo-2,3-dimethyl-naphtho[2,3-b]thiophen-4-yl)-2-hydroxy-phenyl]-carbamic Acid tert-Butyl Ester] | 205 to 207 °C | – | 489 nM | – | –
6 | Cc1sc2c(Br)c3ccccc3c(-c3cc(Br)c(O[C@H](C)C(=O)O)c(Br)c3)c2c1C [Example 30, (R)-2-[2,6-Dibromo-4-(9-bromo-2,3-dimethylnaptho[2,3-b]thien-4-yl)-phenoxy]-propanoic acid] | 224 to 225 °C | −60.32% | 869 nM | – | –
7 | Cc1sc2c(Br)c3ccccc3c(-c3ccc(O)c(N)c3)c2c1C [Example 22, 2-Amino-4-(9-bromo-2,3-dimethyl-naphtho[2,3-b]thiophen-4-yl)-phenol] | 173 to 175 °C | −28.57% | – | – | –
8 | Cc1sc2c(I)c3ccccc3c(-c3ccc(OS(C)(=O)=O)cc3)c2c1C [Example 11, Methanesulfonic acid 4-(9-iodo-2,3-dimethyl-naphtho[2,3-b]thiophen-4-yl)-phenyl ester] | 212 to 213 °C | – | – | – | –
9 | Cc1c(CN2CCOCC2)sc2c(Br)c3ccccc3c(-c3cc(Br)c(O)c(Br)c3)c12 [Example 19, 2,6-Dibromo-4-(9-bromo-3-methyl-2-morpholin-4-ylmethyl-naphtho[2,3-b]thiophen-4-yl)-phenol] | 237 to 240 °C | −30.40% | 697 nM | – | –
10 | COC(=O)CNc1cc(-c2c3ccccc3c(Br)c3sc(C)c(C)c23)cc(Br)c1OC [Example 59, [3-Bromo-5-(9-bromo-2,3-dimethyl-naphtho[2,3-b]thiophen-4-yl)-2-methoxy-phenylamino]-acetic Acid Methyl Ester] | 194 to 198 °C | – | 2200 nM | – | –
11 | Cc1sc2c(Br)c3ccccc3c(-c3cc(C(C)C)c(OCC(=O)O)c(C(C)C)c3)c2c1C [Example 53, [4-(9-Bromo-2,3-dimethyl-naphtho[2,3-b]thiophen-4-yl)-2,6-diisopropyl-phenoxy]-acetic acid] | 228 to 231 °C | −81.83% | 204 nM | – | –
12 | Cc1sc2c(Br)c3ccccc3c(-c3cc(Br)c(O)c(C(C)C)c3)c2c1C [Example 39, 2-Bromo-4-(9-bromo-2,3-dimethyl-naphtho[2,3-b]thiophen-4-yl)-6-isopropyl-phenol] | 157 to 162 °C | – | 1740 nM | – | –
13 | Cc1sc2c(Br)c3ccccc3c(-c3ccc(O)cc3)c2c1C [Example 8, 4-(9-Bromo-2,3-dimethyl-naphtho[2,3-b]thiophen-4-yl)-phenol] | 165 to 168 °C | – | – | – | –
14 | CC(=O)Oc1ccc(-c2c3ccccc3cc3sc(C)c(C)c23)cc1 [Example 6, Acetic Acid 4-(2,3-dimethyl-naphtho[2,3-b]thiophen-4-yl)-phenyl ester] | 147 to 150 °C | – | – | – | –
15 | COc1c(Br)cc(-c2c3ccccc3c(Br)c3sc(C)c(C)c23)cc1NCC(=O)O [Example 60, [3-Bromo-5-(9-bromo-2,3-dimethyl-naphtho[2,3-b]thiophen-4-yl)-2-methoxy-phenylamino]-acetic Acid] | > 190 °C (dec.) | – | 1510 nM | – | –
16 | COC(=O)[C@@H](Cc1ccccc1)Oc1c(Br)cc(-c2c3ccccc3c(Br)c3sc(C)c(C)c23)cc1Br [Example 28, (R)-2-[2,6-Dibromo-4-(9-bromo-2,3-dimethyl-naphtho[2,3-b]thiophen4-yl)-phenoxy]3-phenyl-propionic acid methyl ester] | 174 to 175 °C | – | – | – | –
17 | Cc1sc2c(Br)c3ccccc3c(-c3ccc(O[C@H](Cc4ccccc4)C(=O)O)c(C(C)C)c3)c2c1C [Example 44, (R)-2-[4-(9-Bromo-2,3-dimethyl-naphtho[2,3-b]thiophen-4-yl)-6-isopropyl-phenoxy]-3-phenyl-propionic acid] | – | −68.50% | 237 nM | −17.2 ^ % | –
18 | Cc1sc2c(Br)c3ccccc3c(-c3cc(Br)c(O[C@@H](CCc4ccccc4)C(=O)O)c(Br)c3)c2c1C [Example 31, (S)-2-[2,6-Dibromo-4-(9-bromo-2,3-dimethyl-naphtho[2,3-b]thiophen-4-yl)-phenoxy]-4-phenyl-butyric acid] | 176 to 177 °C | −63.42% | 49 nM | – | –
19 | Cc1sc2c(Sc3ccccc3)c3ccccc3c(-c3cc(Br)c(O)c(Br)c3)c2c1C [Example 13, 2,6-Dibromo-4-(2,3-dimethyl-9-phenylsulfanyl-naphtho[2,3-b]thiophen-4-yl)-phenol] | 237 to 239 °C | – | – | – | –
20 | Cc1sc2c(Br)c3ccccc3c(-c3cc(Br)c(O)c([N+](=O)[O-])c3)c2c1C [Example 21, 2-Bromo-4-(9-bromo-2,3-dimethyl-naphtho[2,3-b]thiophen-4-yl)-6-nitro-phenol] | 129 to 130 °C | −63.12% | 381 nM | – | –
21 | COc1c(N)cc(-c2c3ccccc3c(Br)c3sc(C)c(C)c23)cc1Br [Example 58, 3-Bromo-5-(9-bromo-2,3-dimethyl-naphtho[2,3-b]thiophen-4-yl)-2-methoxy-phenylamine] | 198 to 200 °C | – | – | – | –
22 | Cc1sc2c(Br)c3ccccc3c(-c3cc(Br)c(O[C@H](CCc4ccccc4)C(=O)O)c(Br)c3)c2c1C [Example 32, (R)-2-[2,6-Dibromo-4-(9-bromo-2,3-dimethyl-naphtho[2,3-b]thiophen-4-yl)-phenoxy]-4-phenyl-butyric acid] | – | −89.41% | 60 nM | −15.68 (a) % | −48.35 ^ %
